1 molecule from PMC3812394 (Biochemistry, 2013) can be followed below.

Broadly, the Kd is the constant that tells how readily two partners part at equilibrium.

This assay deals with T1, Chloroperoxidase (CPO) (Leptoxyphium fumago, UniProt P04963).
T1 sequence (P04963 21-319): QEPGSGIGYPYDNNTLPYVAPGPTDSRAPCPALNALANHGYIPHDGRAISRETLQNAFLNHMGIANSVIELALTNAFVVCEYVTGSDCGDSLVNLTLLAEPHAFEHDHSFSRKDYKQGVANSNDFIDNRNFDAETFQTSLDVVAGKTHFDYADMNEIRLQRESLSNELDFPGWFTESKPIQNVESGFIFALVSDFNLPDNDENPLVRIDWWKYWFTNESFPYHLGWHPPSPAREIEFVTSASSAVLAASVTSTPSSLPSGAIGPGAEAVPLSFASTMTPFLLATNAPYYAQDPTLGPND
Briefly: paramagnetic NMR T1 relaxation titration with purified CPO. In kind it is binding.

Regarding `c1ccc2[nH]ccc2c1` [indole], the equilibrium dissociation constant (Kd) was around 21 mM.
